Data from patent publication US5968920A, “Compounds having a benzisoselen-azoline and -azine structure, method for preparing same and therapeutic uses thereof” (Oxis Isle of Man, Limited, priority 1994, dated 1999).

How the values were obtained:
[1] = Glutathione peroxidase activity, t-BuOOH as hydroperoxide; assay type: biochemical; conditions: compound 20 μM, pH = 7.3, 37° C., [GSH] = 2 mM
Protocol: To 1.5 ml of HEPES buffer, 50 mM, pH=7.3, containing 0.2 mM of DTPA, 0.144 mM of NADPH, 2.2 mM of reduced glutathione and 1.1 U/ml of glutathione disulfide reductase, pre-equilibrated for 2 minutes at 37° C., 100 μl of an ethanolic mother solution of the compound to be tested or 100 μl of absolute ethanol (blank) was added. Each compound was tested at a final concentration of 20 μM.
Subsequently, 50 μl of the following was added:
tertiobutyl hydroperoxide (t-BuOOH), 6.6 mM in ultrapure water;
or the hydroperoxide of linoleic acid (18:2-OOH) prepared using soya lipoxygenase (see M. O. Funk et al., Lipids, (1976), 11, pp 113-117), 3.3 mM in a water/methanol mixture, 85/15 (V/V). The glutathione peroxidase activity was measured at 37° C. by measuring the reduction in absorbance at 340 nm over 5 minutes. The initial enzymatic rate or activity was proportional to the slope of the plot of absorbance against time.
They are expressed in nmoles of hydroperoxide reduced per minute.

endothelial cells = assay: Viability of endothelial cells subjected to linoleic acid hydroperoxide (MTT); assay type: cell-based, human; conditions: compound 4 μM, 1 h; 18:2-OOH 50 μM, 2 h; MTT after about twenty hours
Protocol: Human endothelial cells were cultivated at 37° C. in multi-hole plates or Petri dishes in an atmosphere of saturated humidity constituted by a gaseous mixture of 95% air and 5% of CO2. The culture medium was constituted by a M 199 medium, pH=7.4, containing 20% of foetal calf serum, 2 mM of L-glutamine, 100 U/ml of penicillin, 100 μg/ml of streptomycin and 1% by volume of a medium supplement containing heparin and a cell growth factor.
When the cells were near confluence, they were incubated for one hour in the presence or absence of one of the following compounds: BXT-51056, BXT-51072, BXT-51077, or ebelsen. Each of these compounds was incorporated at 4 μM into culture medium containing 2% of foetal calf serum, all other conditions being the same.
After washing the cells three successive times with a PBS buffer, they were incubated in the presence or absence (control) of linoleic acid hydroperoxide (18:2-OOH), 50 μM, in the culture medium defined above. […] After about twenty hours, the viability of the cells was determined by measurement using the bromide of 3-(4,5-dimethylthiazol-2-yl)-2,5-diphenyl-2H-tetrazolium (MTT).
The results are shown in FIG. 1, expressed as the survival percentage with respect to the control and where the reference is shown by the black rectangle.

interleukin 8 (IL-8) = assay: Endothelial production of interleukin 8 induced by TNF-α; assay type: cell-based, human; conditions: Homo sapiens, 4 h, read-out: inhibition of IL-8 production induced by TNF-α
Protocol: (§1) Human endothelial cells were cultivated under the same conditions as those described for Example 18.
When the cells were near confluence, they were incubated for one hour in the presence or absence of the following compounds: BXT-51072, BXT-51077 or ebselen. Each of these compounds was incorporated into culture medium containing 2% of foetal calf serum at 10 μM, all other conditions being the same. […] After four hours of incubation, the interleukin 8 (IL-8) in the culture medium was measured.

[2] = system: von Willebrandt factor (vWf); assay: Protection of endothelial cells against interleukin 1 (von Willebrandt factor release); assay type: cell-based; conditions: Homo sapiens, Endothelial cell; compound 10 μM; IL-1α 50 U/ml; 4 h; compound present or not during IL-1 incubation; read-out: inhibition of increase in vWf liberation induced by IL-1
Protocol: as §1
When the cells were near confluence, they were incubated for one hour in the presence or absence of the following compounds: BXT-51072, BXT-51077, each of these compounds being at 10 μM in culture medium containing 2% of foetal calf serum , all other conditions being the same. The cells were then washed three times with a PBS buffer. The cells which had not been pretreated by a compound were incubated in the presence or absence (control) of interleukin 1α (IL-1α), at 50 U/ml, in the same culture medium. […] After four hours of incubation, the von Willebrandt factor (vWf) in the culture medium was measured.

Compound: CC1(C)CN[Se]c2ccccc21 [BXT-51072, 4,4-dimethyl-benzisoselenazine]
- Glutathione peroxidase activity, t--BuOOH [1]: 27.4 nmoles of hydroperoxide reduced/min
- protection of the cells from death induced by 18:2-OOH (endothelial cells): significantly protected the cells from death
- inhibition at 10 µM (interleukin 8 (IL-8)): ≥ 70%
- inhibition at 10 µM [2]: > 70%
